TGI and GI50 data for 27 compounds are collected here from PubChem BioAssay (NCI).

What all share (test): DTP human tumour cell line panel, 48 h
Assay [1] concerns HCT-15 colon.
In assay [2] the test system is UO-31 renal.
The test system of assay [3] is HCC-2998 colon.
The test system of assay [4] is COLO 205 colon.
Assay [5] has as its system OVCAR-5 ovarian.
In assay [6] the test system is SK-MEL-2 melanoma.
For assay [7], the system named is U251 CNS.
Assay [8] deals with SW-620 colon.
The test system of assay [9] is MDA-N.
Assay [10] deals with RPMI-8226 leukemia.

The structures appear in SMILES notation.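 All cell lines were grown in 96-well plates and treated with compound for 48 hours. Here, GI50 denotes the concentration required for 50% inhibition of growth. TGI denotes the concentration required for complete inhibition of growth.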

As to `Cc1ccc(NC(=O)CC/C(CC(=O)C(C)(C)C)=N/NC(=O)c2cc3ccccc3cc2O)cc1C`, the TGI in [1] is > 100 µM; in assay [2] it was > 100 µM; in assay [3], 55 µM; in assay [4] it was > 100 µM; in [5], > 100 µM; in assay [6] it was > 100 µM. In addition, the TGI in assay [7] and in [8] was > 100 µM each time.

Turning to `CC(=O)CCC1(C(=O)OCC(C)C)CCCC1=O` (stereo unspecified), the TGI in assay [1], in [9], in assay [2], in assay [4], in assay [5] and in assay [6] was > 100 µM in each case. The TGI in assay [7] and in assay [8] was > 100 µM in each case.

For the compound `Cc1ccc(S(=O)(=O)OCCN(CCOS(=O)(=O)c2ccc(C)cc2)c2ccc(C=O)cc2)cc1`, the total growth inhibition concentration (TGI) is > 100 µM in assay [10]; > 100 µM in assay [1]; 41.3 µM in assay [2]; 85.5 µM in assay [3]; > 100 µM in [4]; 64.8 µM in assay [5]. The TGI is 40.1 µM in assay [6], 71.5 µM in assay [7] and > 100 µM in [8].

On to `CCC12CCC[C@@]13C=C[C@H](O3)C(C)(C)C2=O` (stereo partly specified), for which the TGI in assay [10], in assay [1], in assay [2], in assay [3], in assay [5] and in [6] was > 100 µM throughout. Besides, the TGI in [7] and in assay [8] was > 100 µM in each case.

For the compound `COc1cc2c(cc1O)NC(=O)[C@@H]1C[C@@H](O)CN1C2=O`, the TGI in assay [10], in assay [1], in assay [2], in [3], in [4] and in assay [5] was > 100 µM in each case. Moreover, the TGI in assay [6], in assay [7] and in assay [8] was > 100 µM throughout.

As for `COc1ccc(/C(C=O)=C(\Cl)c2ccc(OC)c(OC)c2)cc1`, the TGI in [10], in assay [1], in [2], in assay [3], in assay [5] and in assay [6] was > 100 µM in each case. The total growth inhibition concentration (TGI) in assay [7] and in assay [8] was > 100 µM throughout.

Consider `CC1CC(c2ccccc2)=Nc2ccccc2S1` (stereo unspecified), for which the TGI in assay [10], in [1], in [2], in [3], in [4] and in assay [5] was > 100 µM throughout. Also, the TGI in [6], in assay [7] and in assay [8] was > 100 µM in each case.

With `CC(C)C(NCc1c2ccccc2[n+](C)c2ccccc12)C(=O)O` (stereo unspecified), the TGI in assay [10] was 5.15 µM; in assay [1] it was 13.9 µM; in assay [2], 21.7 µM; in assay [3], 29.3 µM; in [4], 10.6 µM; in assay [5] it was 33.2 µM. Moreover, the total growth inhibition concentration (TGI) was 17 µM in assay [6], 18 µM in assay [7] and 18.8 µM in [8].

As for `O=C1c2ccccc2-c2c1c1ccccc1c(=O)n2CCCNCCNCCCn1c2c(c3ccccc3c1=O)C(=O)c1ccccc1-2`, the concentration for 50% growth inhibition (GI50) in assay [10] is < 0.01 µM; in [1], 0.0831 µM; in [2], 0.342 µM; in [5], 1.29 µM; in assay [6], 2.02 µM; in assay [7] it was 0.118 µM. Also, the GI50 in assay [8] was < 0.01 µM. In addition, the TGI worked out at 0.221 µM in [10]; 0.56 µM in assay [1]; 2.93 µM in [5]; 2.33 µM in assay [7]; 0.258 µM in assay [8].

Take `COc1ccc(C(=CCC(C)C2CCC3[C@@H]4C(OC(C)=O)CC5CC(OC(C)=O)CC[C@]5(C)C4CC(OC(C)=O)[C@]23C)c2ccc(OC)cc2)cc1` (stereo partly specified): the total growth inhibition concentration (TGI) in assay [10], in assay [1], in assay [2], in [3], in assay [4] and in assay [5] was > 100 µM each time. For the same compound, the TGI in [7] and in assay [8] was > 100 µM throughout.

In the case of `COc1c(OC2OC(CO)C(O)C(O)C2O)cc2c(c1OC)-c1ccc(OC)c(=O)cc1C(NC(C)=O)CC2` (stereo unspecified), the total growth inhibition concentration (TGI) in [10], in [1], in assay [2], in [3], in assay [4] and in [5] was > 100 µM in each case. Besides, the TGI in assay [6], in [7] and in [8] was > 100 µM in each case.

Turning to `O=C(Nc1ccc(-n2cc(-c3ccncc3)c(-c3ccc(O)c(Cl)c3)n2)cc1)Nc1cc(C(F)(F)F)cc(C(F)(F)F)c1`, the GI50 is 2.81 µM in assay [10]; 3.36 µM in assay [1]; 1.94 µM in assay [2]; 5.03 µM in assay [3]; 2.62 µM in assay [4]; 3.17 µM in assay [5]. Besides, the figures for the GI50 in [6], in [7] and in assay [8] were 2.2 µM, 2.98 µM and 5.93 µM, respectively. For the same compound, the total growth inhibition concentration (TGI) was 9.95 µM in assay [10]; 12.6 µM in [1]; 12.6 µM in assay [2]; 22.1 µM in assay [3]; 7.83 µM in assay [4]; 12.7 µM in [5]. For the same compound, the TGI stood at 4.98 µM in assay [6], 12.4 µM in [7] and 22 µM in assay [8].

For the compound `COc1cccc(/C=N/[N-]C(N)=O)c1[O-].[Cu+2].[OH3+]`, the TGI in assay [10] was > 100 µM; in [1], 27.2 µM; in assay [2], 31.7 µM; in assay [3] it was 31 µM; in assay [4] it was > 100 µM; in assay [5] it was 32.6 µM. The TGI in assay [6] was 31.3 µM; in assay [7] it was 19.7 µM; in assay [8], 27.3 µM. Further, the values for the GI50 in assay [4] and in assay [7] were 9.49 µM and 7.38 µM, respectively.

In the case of `[C-]#[O+].[Cl][Sn]([Cl])[Cl].[Cl][Sn]([Cl])[Cl].[Pt].c1cnc2c(c1)ccc1cccnc12`, the concentration for total growth inhibition (TGI) in assay [10] is > 65.8 µM; in assay [1], > 44 µM; in assay [2], > 33.8 µM; in [3] it was 13.1 µM; in assay [4], > 100 µM; in assay [5] it was > 59.5 µM. The values for the TGI in assay [6], in assay [7] and in assay [8] were 18.6 µM, 15 µM and > 100 µM, respectively.

For the compound `CCOC(=O)C(Cc1ccc(N=NN(C)C)cc1)NC(=O)CC1c2ccccc2-c2ccccc21` (stereo unspecified), the TGI in assay [10], in assay [1], in assay [2], in assay [3], in [4] and in assay [5] was > 100 µM in each case. Besides, the concentration for total growth inhibition (TGI) in [6], in [7] and in assay [8] was > 100 µM in each case.

With `N#Cc1cc(F)cc(Oc2ccc(S(=O)(=O)C(F)F)c3c2CC(F)(F)[C@H]3O)c1`, the GI50 in assay [10] is 19.2 µM; in assay [1] it was 29.2 µM; in [2], 15.1 µM; in [3], 48 µM; in assay [4], 25.6 µM; in [5] it was 51 µM. Moreover, the GI50 in [6] is 16.4 µM; in assay [7], 29.8 µM; in assay [8] it was 55.3 µM. Besides, the TGI in assay [10] was 96.4 µM; in [1], > 100 µM; in assay [2], 69.9 µM; in assay [3], > 100 µM; in assay [4], 63.1 µM; in assay [5], > 100 µM. The TGI in assay [6] is 59.8 µM; in [7], > 100 µM; in assay [8] it was > 100 µM.

On to `C/C(CCN(C)C)=N/O`, for which the TGI in assay [10] was 11.4 µM; in assay [1], 25.1 µM; in [2], 31.5 µM; in assay [3], 25.2 µM; in [4] it was 15.8 µM; in assay [5] it was 32.9 µM. Moreover, the results for the TGI in [6], in assay [7] and in assay [8] were 31.5 µM, 14.6 µM and 6.71 µM, respectively.

For the compound `Cc1cc(-c2ccc(N=Nc3ccc4c(S(=O)(=O)O)cc(S(=O)(=O)O)c(N)c4c3O)c(C)c2)ccc1N=Nc1ccc2c(S(=O)(=O)O)cc(S(=O)(=O)O)c(N)c2c1O`, the TGI in assay [10], in assay [1], in assay [2], in assay [3], in assay [4] and in [5] was > 100 µM throughout. In addition, the TGI in assay [6], in assay [7] and in assay [8] was > 100 µM each time.

With `CN1C(c2ccccc2)CC(O)CC1c1ccccc1` (stereo unspecified), the TGI in [10], in assay [1], in assay [2], in [4], in [5] and in assay [6] was > 100 µM in each case. The concentration for total growth inhibition (TGI) in [7] and in assay [8] was > 100 µM throughout.

On to `COC(=O)c1c(O)ccc2c1c1c(n2Cc2ccc(OC)cc2)C(=O)c2ccccc2C1`, for which the concentration for total growth inhibition (TGI) in [10] was 31.5 µM; in assay [1], > 100 µM; in [9] it was > 100 µM; in [2], > 100 µM; in assay [4], 34.4 µM; in [6], > 100 µM. Further, the TGI in assay [7] and in [8] was > 100 µM throughout.

With `CC(C)(C)C(=O)c1c(O)c2ccccc2c2ccccc2c1=O`, the TGI in assay [1], in [9], in [2], in assay [4], in [5] and in assay [6] was > 100 µM in each case. Also, the TGI in assay [7] and in [8] was > 100 µM throughout.

As to `Cn1c(CO)ccc1-c1ccc(-c2ccc(CO)[se]2)[se]1`, the total growth inhibition concentration (TGI) was 12.1 µM in assay [10]; > 70.6 µM in [1]; > 100 µM in assay [2]; 22.5 µM in assay [3]; 9.23 µM in assay [4]; 26.9 µM in assay [6]. Also, the TGI was 24.4 µM in assay [7] and > 100 µM in [8].

`O=C(O)C1CCC(=O)N1C(=O)COc1cc(Cl)c(Cl)cc1Cl` (stereo unspecified): the TGI in assay [1], in assay [2], in assay [4], in [5], in [7] and in [8] was > 100 µM in each case.

As to `NCCCNc1nc2ccccc2c2c(=O)c3cc(Cl)ccc3sc12`, the GI50 in assay [2] is 1.28 µM; in assay [4] it was 1.63 µM; in [5] it was 1.67 µM; in assay [6], 1.99 µM. In addition, the total growth inhibition concentration (TGI) in [2] amounted to 2.58 µM; in assay [4] it was 3.1 µM; in assay [5], 3.14 µM; in assay [6], 3.69 µM.

As to `COC(=O)[C@H](C)NC(=O)[C@H](NS(=O)(=O)c1nc2ccccc2s1)c1ccccc1`, the TGI in assay [10] was > 100 µM; in [1], > 100 µM; in assay [2], 35.8 µM; in assay [3], 44.5 µM; in [4] it was 25.9 µM; in [6], 25.2 µM. The total growth inhibition concentration (TGI) in assay [7] is 41 µM; in assay [8], > 100 µM.

Consider `COCOC1CCCC[C@@]1(OCCOCCO[C@@]1(c2ccccc2)CCCC[C@H]1OCOC)c1ccccc1` (stereo partly specified), for which the TGI in assay [10], in [2], in assay [3], in [4], in assay [5] and in assay [6] was > 100 µM throughout. Besides, the TGI in [7] and in assay [8] was > 100 µM each time.

As for `COC1=C(OC)C(=O)C(Cc2c(Cl)nc3sccn23)=C(C)C1=O`, the TGI in assay [10] was 15.7 µM; in [1], 27.2 µM; in assay [2], 23.6 µM; in assay [3], 32.1 µM; in assay [4], 29.2 µM; in assay [5], 31.7 µM. The TGI came to 38.7 µM in [6], 25.1 µM in [7] and 30.4 µM in assay [8].
